Patent US9522908B2, “Ezrin inhibitors and methods of making and using” (Georgetown University, priority 2010, dated 2016)

How the values were obtained:
[1] = molecular target: T1, recombinant WT ezrin protein (Mus musculus, UniProt P26040); assay: SPR direct binding to immobilized recombinant WT ezrin (Biacore); conditions: 5 independent experiments
T1 construct: full-length recombinant ezrin protein was expressed in bacteria; made in house; host or cells: E. coli M15pREP4 (pQE16 vector)
Experimental: FIG. 7 provides results illustrating the functional activity of select compounds of the present invention on ezrin protein. The chemical structure of the embodied compounds is detailed and the corresponding binding and viability values are listed. The binding potential of select compounds to ezrin was analyzed by using SPR. Recombinant WT ezrin was immobilized onto a Biacore CM5 sensorchip and compounds were injected one-at-a-time at 6 different concentrations. SPR sensograms and KD values were determined using Biacore software. […] The viability and growth inhibition activity of select compounds were determined by treatment of high ezrin expressed K7M2 and low ezrin expressed K12 osteosarcoma cells with a dose range of the select compound for 24 hours. […]
Compounds for initial screening were acquired from 4 libraries (Challenge Set, Diversity Set, Mechanistic Set and Natural Product Set) of the Developmental Therapeutics Program, National Cancer Institute. Their direct ezrin binding potential was analyzed by using Biacore T100 v2.0.3 instrument (GE Healthcare, Piscataway N.J.). […] Existing interactions are measured based on total mass change on the chip surface. Recombinant WT ezrin protein was used as the ligand and immobilized on to a Biacore CM5 sensorchip and compounds were injected one at a time as the binding interactions were recorded. […]

[2] = molecular target: T2, PKC,τ (Homo sapiens, UniProt P41743); assay: SPR direct binding to PKC,τ (Biacore); conditions: data not shown
T2 sequence (P41743 1-596): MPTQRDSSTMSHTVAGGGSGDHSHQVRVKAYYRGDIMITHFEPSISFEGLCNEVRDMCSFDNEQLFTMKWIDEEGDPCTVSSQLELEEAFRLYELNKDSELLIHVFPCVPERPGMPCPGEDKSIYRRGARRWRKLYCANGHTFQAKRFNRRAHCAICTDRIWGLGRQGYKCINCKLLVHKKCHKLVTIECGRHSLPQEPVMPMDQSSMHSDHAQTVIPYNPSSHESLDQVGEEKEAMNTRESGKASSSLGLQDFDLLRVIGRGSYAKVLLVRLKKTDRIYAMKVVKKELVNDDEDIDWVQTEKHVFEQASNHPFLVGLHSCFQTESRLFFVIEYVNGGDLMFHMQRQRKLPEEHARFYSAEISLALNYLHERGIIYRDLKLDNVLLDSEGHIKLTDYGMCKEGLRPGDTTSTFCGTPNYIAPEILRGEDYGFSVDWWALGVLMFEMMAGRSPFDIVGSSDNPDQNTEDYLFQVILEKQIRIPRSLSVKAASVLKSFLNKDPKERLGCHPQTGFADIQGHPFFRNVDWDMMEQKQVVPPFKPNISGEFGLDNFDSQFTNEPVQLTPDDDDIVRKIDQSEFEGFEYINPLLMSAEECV

[3] = molecular target: T3, ezrin / poly-A-binding protein 1 (PABP1) interaction (Mus musculus, UniProt P26040); assay: Ezrin-PABP1 interaction by immunoprecipitation and western blot; assay type: cell-based; conditions: cells treated 60 min prior to immunoprecipitation
T3 construct: endogenous in cells; host or cells: K7M2 osteosarcoma cells
T3 sequence (P26040 whole entry): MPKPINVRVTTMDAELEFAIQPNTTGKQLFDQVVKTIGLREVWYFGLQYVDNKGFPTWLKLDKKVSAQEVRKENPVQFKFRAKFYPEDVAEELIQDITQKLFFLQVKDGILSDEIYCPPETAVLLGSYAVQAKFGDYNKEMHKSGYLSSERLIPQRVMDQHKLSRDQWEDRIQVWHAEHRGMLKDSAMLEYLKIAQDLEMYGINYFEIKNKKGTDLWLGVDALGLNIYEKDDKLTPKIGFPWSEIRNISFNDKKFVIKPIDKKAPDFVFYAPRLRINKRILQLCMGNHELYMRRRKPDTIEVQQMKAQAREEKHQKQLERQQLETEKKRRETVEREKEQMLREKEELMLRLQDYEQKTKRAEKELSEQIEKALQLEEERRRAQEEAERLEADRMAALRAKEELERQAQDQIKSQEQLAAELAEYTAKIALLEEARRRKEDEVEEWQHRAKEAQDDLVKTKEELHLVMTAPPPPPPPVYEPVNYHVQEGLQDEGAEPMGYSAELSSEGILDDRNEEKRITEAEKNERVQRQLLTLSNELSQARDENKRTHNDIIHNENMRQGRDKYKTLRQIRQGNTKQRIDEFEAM
Experimental: (A) Total cell lysates from K7M2 osteosarcoma cells were immunoprecipitated by using an anti-ezrin antibody. As a control, non-specific total IgG was used. Immunoprecipitates were run on SDS-PAGE and Western Blot was performed using anti-ezrin (lower panel) and anti-PABP1 (upper panel) antibodies. PABP1 protein was detected in immunoprecipitates of ezrin, suggetsing that these two proteins interact with each other in a protein complex. (B) Ezrin-PABP1 interaction was also evaluated in an ELISA experiment where recombinant ezrin protein was immmobilized on surface and total cell lysates from osteosarcoma cells were applied on top. Amount of PABP1 binding to ezrin on the surface was detected by a anti-PABP1 primary antibody followed by enzyme linked secondary antibody. (C) Immunoprecipitation and western experiment was prepared as described in panel A. Cells were treated with NSC305787 (compound 8) and NSC668394 (compound 16) for 60 min prior to immunoprecipitation. Both NSC305787 and NSC668394 inhibited interaction of PABP1 with ezrin

T1 sequence (P26040 whole entry): as above

## OC(c1cc(C23CC4CC(CC(C4)C2)C3)nc2c(Cl)cc(Cl)cc12)C1CCCCN1 (stereo not drawn) [NSC305787]
[1]
  Kd: 5.85 µM
[2]
  Kd: 172 µM
[3]
  interaction of PABP1 with ezrin: inhibited
